Values quoted from earlier work as cited in patent publication EP1860434A1, “Method for analysing substance mixtures” (Shimadzu Europa GmbH, priority 2006, dated 2007).

Conditions: listed for the six substances of the Performance Test Probe; no measurement described

Molecule	pKa-Wert
2-Ethyliden-1.5-dimethyl-3.3-diphenyl-pyrrolidin	9.6
CC(N)Cc1ccc2c(c1)OCO2 (stereo not drawn) [Methylendioxyamphetamin (MDA), Methylendioxyamphetamin]	9.7
CN(C)C(=O)Oc1cccc([N+](C)(C)C)c1 [Neostigminbromid]	12
